What was measured:
[1] = tested on: D2078G/P2083T edited rice line; assay type: in vivo, Oryza sativa; conditions: all clethodim spray rates, nine environments
From the text: The clethodim herbicide chosen contained 2.0 pounds active ingredient per gallon. Using a randomized completed block design with three replicates, four clethodim spray rates (5.76, 8.30, 12.10 and 16.00 fluid ounces per acre) were compared to an untreated control (“UTC”). Phytotoxicity rates to access crop response were visually scored (7) seven, (14) fourteen and (28) twenty-eight days after clethodim application (“DAA”) using a 0-100% percentage chlorosis scale. All plots were maintained weed free using additional herbicides tolerant by all rice lines. Yield was collected using a research plot combine to harvest the small plot, and yields were standardized to 12.5% moisture before being converted to a percentage of the untreated control.

D2078G/P2083T line = assay type: in vivo, Oryza sativa; conditions: sprayed with clethodim
From the text: (§1) The results of herbicide rate tolerance field trials of the D2078G/P2083T line can be seen below in Table 11. The edited plants were sprayed with clethodim, and plant injury was visually scored at (7) seven, (14) fourteen, and (28) days after application of the herbicide (“DAA”) on a 0-100% percentage scale for chlorosis of newest leaf-tips and growing points.

rice Oryza sativa = test: Regenerated edited rice shoots established in soil, greenhouse: plant growth, herbicide tolerance, fertility (Example 9); assay type: in vivo
From the text: The D2078G mutation was introduced into a native rice Oryza sativa ACCase gene utilizing PEG delivery of CRISPR-Cas and GRONs into protoplasts. Examples of target spacer sequences for sgRNA targeting the rice ACCase gene are shown, but not limited to, those listed in the below Table 9. Sequence information for exemplary GRONs is shown, but not limited to those listed in the below Table 10. Rice protoplasts were isolated from cell suspension cultures initiated from Cypress mature seed-derived embryogenic calli. A non-coding D2078G GRON with RNP (CRISPR-Cas9 protein plus gRNA complex) was introduced into rice protoplasts using PEG-mediated delivery method. Following PEG treatment, protoplasts were cultured in liquid medium and kept stationary in the dark at 26±2° C. for 2 weeks. After 2 weeks, culture plates were gently scraped to release the divided protoplasts from the bottom of the plates and added equal volume of fresh liquid medium. These cultures were transferred on a rotatory shaker and incubated in the dark at 26±2° C. […]
as §1

O. sativa ACCase = test: Growth of Saccharomyces cerevisiae pseudodiploid acc1Δ strains carrying wild-type or mutant OsACCase plasmids, streaked onto plates with increasing concentrations of clethodim (Examples 5, 7, 10; Tables 8, 12); assay type: cell-based, Oryza sativa; parameters: key to growth, 0 mM clethodim / growth, 0.025 mM clethodim / growth, 0.1 mM clethodim / growth, 0.25 mM clethodim / growth, 0.5 mM clethodim / growth, 1 mM clethodim: ++ = Strong growth; + = Poor growth; − = No growth; key to relative growth phenotype, 0.5 mM clethodim / relative growth phenotype, 1 mM clethodim / relative growth phenotype, 2 mM clethodim / relative growth phenotype, highGal / relative growth phenotype, lowGal / relative growth phenotype, 0.05 mM clethodim / relative growth phenotype, 0.1 mM clethodim / relative growth phenotype, 0.25 mM clethodim: +++ high growth; ++ moderate growth; + low to negligible growth; (−) some cell debris, no growth; − no growth or cell debris; conditions: for growth, 0 mM clethodim / growth, 0.025 mM clethodim / growth, 0.1 mM clethodim / growth, 0.25 mM clethodim / growth, 0.5 mM clethodim / growth, 1 mM clethodim: Table 12; for growth, 0 mM clethodim: plate with 0 mM clethodim; for growth, 0 mM clethodim / growth, 0.025 mM clethodim / growth, 0.1 mM clethodim / growth, 0.25 mM clethodim / growth, 0.5 mM clethodim / growth, 1 mM clethodim / relative growth phenotype, 0.05 mM clethodim / relative growth phenotype, 0.1 mM clethodim / relative growth phenotype, 0.25 mM clethodim / relative growth phenotype, 0.5 mM clethodim / relative growth phenotype, 1 mM clethodim / relative growth phenotype, 2 mM clethodim: galactose 0.01%; for growth, 0.025 mM clethodim: plate with 0.025 mM clethodim; for growth, 0.1 mM clethodim / relative growth phenotype, 0.1 mM clethodim: plate with 0.1 mM clethodim; for growth, 0.25 mM clethodim / relative growth phenotype, 0.25 mM clethodim: plate with 0.25 mM clethodim; for growth, 0.5 mM clethodim / relative growth phenotype, 0.5 mM clethodim: plate with 0.5 mM clethodim; for growth, 1 mM clethodim / relative growth phenotype, 1 mM clethodim: plate with 1 mM clethodim; for clethodim tolerance compared to the wild-type (wt) control strain: Example 5; for relative growth phenotype, 0.05 mM clethodim: plate with 0.05 mM clethodim; for relative growth phenotype, 2 mM clethodim: plate with 2 mM clethodim; for relative growth phenotype, highGal / relative growth phenotype, lowGal: yeast acc1Δ strain with OsACCase plasmid, no clethodim; for relative growth phenotype, highGal: high galactose plate; for relative growth phenotype, lowGal: low galactose plate
From the text: Mutations at position N2097S and V2098A were combined to determine if point mutations at both positions gave increased resistance compared to either single point mutation. Each of these respective mutations (N2097S, V2098A and N2097S/V2098A) were generated by standard methods and introduced into a Saccharomyces cerevisiae pseudodiploid acc1Δ strain with a plasmid containing wild-type O. sativa ACCase gene. Once each of these mutations were introduced by recombination mediated mutagenesis, the OsACCase wild-type plasmid was removed, and mutation strains were confirmed by sequencing. The three strains, along with a series of controls including a WT strain (negative control), an I1781L mutant strain, and a D2078G mutant strain (positive control), were streaked onto plates with increasing concentrations of clethodim. […] These observations argue that N2097S is an enhancer of V2098A tolerance.
Edits at position S1784N and A1785G were combined to determine if point mutations at both of these two positions gave increased resistance compared to either single point mutation. Each of these respective mutations (S1784N, A1785G and S1784N/A1785G) were generated by standard methods and introduced into a Saccharomyces cerevisiae pseudodiploid acc1Δ strain with a plasmid containing wild-type O. sativa ACCase gene. Once each of these mutations were introduced by recombination mediated mutagenesis, the OsACCase wild-type plasmid was removed, and mutation strains were confirmed by sequencing. The three strains, along with a series of controls including a WT strain (negative control), an I1781L mutant strain, a D2078G mutant strain (positive control), and a V2075L mutant strain were streaked onto plates with increasing concentrations of clethodim.
Each of these respective mutations (D2078G, P2083T, D2078G/P2083T) were generated by standard methods and introduced into a Saccharomyces cerevisiae pseudodiploid acc14 strain with a plasmid containing the wild-type O. sativa ACCase gene. Once plasmids bearing each of these mutations, introduced using recombination-mediated mutagenesis, the OsACCase wild-type plasmid was removed, and strains bearing each mutant plasmid were confirmed by sequencing. The three strains, along with a series of controls including a wild-type strain (negative control), an I1781L mutant strain (medium control), and a pre-existing D2078G mutant strain (positive control) were streaked onto plates with increasing concentrations of clethodim.

[2] = tested on: rice (Oryza sativa) plastidal ACCase; test: Clethodim tolerance of rice ACCase mutations, yeast complementation assay (Examples 1-3); assay type: cell-based; conditions: for clethodim tolerance: ACCase mutation tested with the herbicide clethodim
From the text: Joachimiak M. et al Proc Natl Acad Sci U.S.A. 1997 Sep. 2; 94 (18): 9990-5 and WO/2013/074524 and WO/2013/074524 each describe methods to complement a yeast (Saccharomyces cerevisiae) strain lacking the native acc1 gene with either a wt or mutated form of a chimeric plastidal ACCase gene from a plant such as rice (Oryza sativa). Methods to introduce one or more mutations listed herein into the chimeric ACCase gene and subsequently complement the acc1 lacking yeast strain are well known by an individual skilled in the art. In the art assays are known for measuring tolerance of a mutated plant ACCase gene versus a herbicide that is a member of the aryloxyphenoxypropanoate, cyclohexanedione, and/or phenylpyrazoline families of herbicides such as clethodim, sethoxydim, fluazifop, haloxyfop, quizalofop, and pinoxaden (Joachimiak M. et al Proc Natl Acad Sci U.S.A. 1997 Sep. 2; 94 (18): 9990-5 and WO/2013/074524).
A library of random mutations in the rice (Oryza sativa) plastidal ACCase gene was generated and screened for clethodim tolerant clones using a yeast complementation assay.

[3] = Cha et al., Pesticide Biochemistry and Physiology 111 (2014) 7-13; cited from earlier work
[4] = plates with increasing clethodim, 0.01% galactose

Row | Substance | herbicide tolerance (rice Oryza sativa) | growth, 0 mM clethodim (O. sativa ACCase) | growth, 0.025 mM clethodim (O. sativa ACCase) | growth, 0.1 mM clethodim (O. sativa ACCase) | growth, 0.25 mM clethodim (O. sativa ACCase) | growth, 0.5 mM clethodim (O. sativa ACCase) | growth, 1 mM clethodim (O. sativa ACCase) | clethodim tolerance [2] | clethodim tolerance compared to the wild-type (wt) control strain (O. sativa ACCase; [4]) | relative growth phenotype, 0.05 mM clethodim (O. sativa ACCase) | relative growth phenotype, 0.1 mM clethodim (O. sativa ACCase) | relative growth phenotype, 0.25 mM clethodim (O. sativa ACCase) | relative growth phenotype, 0.5 mM clethodim (O. sativa ACCase) | relative growth phenotype, 1 mM clethodim (O. sativa ACCase) | relative growth phenotype, 2 mM clethodim (O. sativa ACCase) | relative growth phenotype, highGal (O. sativa ACCase) | relative growth phenotype, lowGal (O. sativa ACCase) | further results
1 | D2078G/P2083T: double mutant ACCase; yeast strain and edited rice line | herbicide tolerance | ++ | ++ | ++ | ++ | ++ | + |  |  |  |  |  |  |  |  |  |  | plant injury [1]: low plant injury; yield [1]: good yield; meristem necrosis (D2078G/P2083T line): limited meristem necrosis except at the highest rates of herbicide application; yield (D2078G/P2083T line; compared to the untreated control plants): increased yield; plant injury (D2078G/P2083T line; visually scored 7, 14, 28 DAA): low plant injury
2 | D2078G: mutated ACCase, numbering per SEQ ID NO: 2; positive control strain; also edited rice shoots | strong herbicide tolerance | ++ | ++ | ++ | ++ | ++ | + | measurable clethodim tolerance | did produce tolerance | +++ | +++ | +++ | +++ | + | (−) | +++ | +++ | clethodim concentrations on which the strain grew (O. sativa ACCase; Example 7, plates with increasing clethodim, 0.01% galactose): up to 1.0 mM
3 | N2097D: mutated ACCase, numbering per SEQ ID NO: 2 |  |  |  |  |  |  |  | neither the N2097S nor the N2097D single mutations provide detectable clethodim tolerance |  |  |  |  |  |  |  |  |  | effect on clethodim tolerance when combined with D2078G, V2075L or V2098A ([2]; combined with either D2078G, V2075L or V2098A): produces opposing results; tolerance to the fluazifop herbicide [3]: associated with tolerance to the fluazifop herbicide
4 | S1784N: mutated ACCase, numbering per SEQ ID NO: 2 |  |  |  |  |  |  |  | measurable clethodim tolerance |  | +++ | +++ | + | (−) | (−) | (−) | +++ | +++ | 
5 | V2075L: mutated ACCase, numbering per SEQ ID NO: 2 |  |  |  |  |  |  |  | measurable clethodim tolerance |  | +++ | +++ | +++ | +++ | + | (−) | +++ | +++ | growth on clethodim plates (in words) (O. sativa ACCase; [4]): grew to a similar extent as the V2075L mutation
6 | V2098A: mutated ACCase, numbering per SEQ ID NO: 2 |  |  |  |  |  |  |  | measurable clethodim tolerance | did produce tolerance |  |  |  |  |  |  |  |  | 
